# Values of other authors in patent publication US7402578B2, “Methods for inhibiting cognitive deterioration in adults with down's syndrome” (Corcept Therapeutics, Inc., priority 2001, dated 2008).
# Columns and labels:
# [1] = in one study (Kawai)
# [2] = test system: cognitive function in DS children; details: Lobaugh et al. 2001
SMILES,fraction of the daily dose excreted in the urine [1],enhancement of cognitive function [2]
"CC#C[C@]1(O)CC[C@H]2[C@@H]3CCC4=CC(=O)CCC4=C3[C@@H](c3ccc(N(C)C)cc3)C[C@@]21C [Mifepristone, 17-beta-hydroxy-11-beta-(4-dimethylaminophenyl)-17-alpha-(1-propynyl)-estra-4,9-dien-3-one]",less than 0.5%,–
NC(=O)CN1CCCC1=O [Piracetam],–,failed to enhance cognitive function
